PMC7862923 (Nature chemical biology, 2020)

What was measured:
Format in all cases: cell-based
pERK = pERK AlphaLISA in MeWo cells
BRAF(V600E) = BRAF(V600E) (Homo sapiens, UniProt P15056, V600E); test: Immunoblot of BRAF protein levels in A375 cells; conditions: 24 h
HCT116 cell line = test: Proliferation and pathway signaling; conditions: HCT116, KRAS(G13D)
BRAF(WT) = BRAF(WT) (Homo sapiens, UniProt P15056); test: Immunoblot of BRAF levels in HCT116 cells; conditions: KRAS(G13D), 24h
pMEK and pERK levels = test: Pathway signaling; conditions: A375 cells, 100 nM, 24 h
A375 cells = test: RNAseq transcriptome analysis; conditions: 200nM, 20 hours

BRAF(V600E), sequence (P15056 whole entry V600E): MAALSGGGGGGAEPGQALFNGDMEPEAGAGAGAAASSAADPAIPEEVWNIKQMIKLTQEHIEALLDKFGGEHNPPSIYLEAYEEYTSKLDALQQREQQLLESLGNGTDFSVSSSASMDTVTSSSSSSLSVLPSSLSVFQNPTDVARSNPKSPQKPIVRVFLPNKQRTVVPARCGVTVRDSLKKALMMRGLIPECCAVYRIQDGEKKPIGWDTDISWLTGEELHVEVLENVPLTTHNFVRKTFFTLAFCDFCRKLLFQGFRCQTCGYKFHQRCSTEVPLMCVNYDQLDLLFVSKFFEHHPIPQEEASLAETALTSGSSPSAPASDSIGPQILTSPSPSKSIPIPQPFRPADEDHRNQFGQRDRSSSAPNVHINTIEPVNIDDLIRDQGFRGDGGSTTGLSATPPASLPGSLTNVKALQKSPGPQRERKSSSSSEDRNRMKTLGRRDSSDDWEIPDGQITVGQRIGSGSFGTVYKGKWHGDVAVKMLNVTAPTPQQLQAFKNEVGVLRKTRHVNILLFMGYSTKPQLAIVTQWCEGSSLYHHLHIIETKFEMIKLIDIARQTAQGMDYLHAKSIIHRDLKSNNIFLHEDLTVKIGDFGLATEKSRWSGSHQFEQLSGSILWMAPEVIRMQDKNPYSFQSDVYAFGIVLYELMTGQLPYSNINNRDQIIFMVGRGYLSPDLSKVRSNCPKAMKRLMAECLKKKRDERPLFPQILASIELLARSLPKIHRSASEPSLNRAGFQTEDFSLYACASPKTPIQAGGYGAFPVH
BRAF(WT), sequence (P15056 whole entry): as the sequence (P15056 whole entry V600E) above, with E600V counted along it

Row | effect on BRAF protein levels (degrader function) (BRAF(V600E)) | SMILES | effect on ERK activation (pERK) (pERK) | reduction of BRAF(V600E) protein levels (BRAF(V600E); 100 nM) | inhibiting cell proliferation and pathway signaling (HCT116 cell line) | ability to reduce BRAF levels (BRAF(WT)) | repression of pathway signaling (pMEK and pERK levels) | number of genes altered (differentially expressed) (A375 cells)
1 |  | CCCS(=O)(=O)Nc1ccc(F)c(-n2cc(-c3cncnc3)c3nc(N(C)C4CCN(CC)CC4)ccc32)c1F [BI 882370*] | induced paradoxical ERK activation | no effect on BRAF(V600E) levels | equally ineffective | no ability to reduce BRAF levels | comparable to P4B and P5B | 195
2 | failed to reduce BRAF protein levels | Nc1cccc2c1C(=O)N(C1CCC(=O)NC1=O)C2=O (stereo not shown) [pomalidomide] |  |  |  |  |  | 
